Measurements: US9474780B2, “GIP and GLP-1 co-agonist compounds” (Eli Lilly and Company, priority 2015, dated 2016)
Several values for one entry are separate records, joined by “and”; a condition that tells them apart may be missing. Equal values may be shown once.

Tests used:
human GLP-1R [1] = biological target: T1, human GLP-1R (Homo sapiens, UniProt P43220); assay: Functional hGLP-1R cAMP assay in HEK-293 clonal cells; assay type: cell-based; conditions: HEK293; percent of maximal response of hGLP-1(7-36)NH2
T1 construct: expressed in transfected cells; host or cells: 293HEK, Hygromycin-selected; crude plasma membranes

[2] = Rat in vivo insulin secretion following intravenous glucose (IVGTT); conditions: s.c. 16 hour prior to glucose
Procedure: Male Wistar rats (Harlan Labs, Indianapolis, Ind.) are randomized by body weight and dosed 1.5 ml/kg s.c. 16 hour prior to glucose administration and then fasted. Doses are vehicle, 0.1, 0.3, 1, 3 and 10 nmol/kg. Animals are weighed, and then anesthetized with sodium pentobarbital (Nembutal Sodium solution; Ovation Pharmaceuticals) dosed i.p. (65 mg/kg, 30 mg/ml). A time zero blood sample is collected into EDTA tubes after which glucose is administered ([…], 5 ml/kg). Blood samples are collected at 2, 4, 6, 10, 20, and 30 minutes post glucose. Plasma glucose levels are determined using a Hitachi analyzer (Roche) and plasma insulin is measured by the MSD insulin assay (Meso Scale, Gaithersburg, Md.).

[3] = Pharmacokinetics in cynomolgus monkeys; assay type: in vivo; conditions: cynomolgus monkey, plasma, single SC 0.2 mg/kg, male monkeys, n = 2
In short: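 Single 0.2 mg/kg dose, intravenous or subcutaneous, in 20 mM citrate buffer pH 7.0; blood sampled from 2 to 312 hours post-dose. Plasma extracted with N-butanol, reconstituted in 30% acetonitrile/0.1% formic acid and quantified by LC/MS on a C5 column with Q-Exactive detection.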

human GLP-1R [4] = biological target: T1, human GLP-1R; assay type: binding
mouse islets = assay: Mouse islet insulin secretion; assay type: cell-based; conditions: read-out: Mouse islet insulin secretion Mean ED50
Procedure: (§1) To assess action of compounds of the present invention in a system representing physiological GLP-1R and GIP-R expression levels insulin secretion, compounds are tested for effects on insulin secretion from wild-type rodent islets.
(§2) After common bile duct cannulation in male C57B1/6 mice (22-26 g) or male Sprague-Dawley rats (approx. 250 g), the pancreas is distended with Hank's buffer (3 ml for mice or 10 ml for rats, containing 2% BSA and 0.75 mg/ml Clzyme collagenase (VitaCyte). Subsequently, tissues are digested in Hank's buffer at 37° C. for 11-13 minutes (mice) or 14-16 minutes for rat pancreata. Purified islets (Histopaque-1100 gradient [Sigma-Aldrich], […] at 750× gravity) are cultured overnight in RPMI-1640 medium (Invitrogen) containing 10% FBS, 100 U/ml penicillin and 100 μg/ml streptomycin, and preconditioned by starvation in Earle's Balanced Salt Solution (EBSS) supplemented with 0.1% BSA and 2.8 mM glucose. Subsequently, islets are incubated in EBSS (Invitrogen) supplemented with 0.1% BSA, 2.8-11.2 mM glucose and increasing levels of compound (6 batches of 4 islets/condition). GLP-1(7-36)amide (30 nM) is used as a positive control. Insulin is measured over 90 minutes in supernatant using the MSD Insulin Assay (Meso Scale, Gaithersburg, Md.).

rat islets = assay: Rat islet insulin secretion; assay type: cell-based; conditions: read-out: Rat islet insulin secretion Mean ED50
Procedure: as §1, §2

[5] = Weight loss, body composition and hepatic steatosis in DIO mice; assay type: in vivo, mouse; conditions: for Blood Glucose: Day 15
Procedure: The effects on weight loss, body composition and hepatic steatosis in DIO mice for compounds of the present invention are evaluated in C57/BL6 DIO mice. […] Animals are individually housed in a temperature-controlled (24° C.) facility with a 12 hour light/dark cycle (lights on 22:00), and free access to food and water. […] Daily body weight and food intake are measured throughout the study. Absolute changes in body weight are calculated by subtracting the body weight of the same animal prior to the first injection of compound. […] On Day 15, blood glucose is measured with Accu-Chek glucometer (Roche) from tail vein blood and then animals may be sacrificed and livers removed and frozen. Liver triglycerides, determined from homogenates of livers collected at sacrifice, and plasma cholesterol are measured on a Hitachi Modular P clinical analyzer. Statistical comparisons between groups are done using one-way ANOVA followed by Dunnett's multiple comparison test. The ED50 for weight loss lowering is determined in GraphPad Prism using the non-linear fit tool.

Human GCGR = Human GCGR (Homo sapiens, UniProt P47871); assay: Functional hGCGR cAMP assay in HEK-293 clonal cells
human GIP-R = biological target: T2, human GIP-R (Homo sapiens, UniProt P48546); assay: Functional hGIP-R cAMP assay in HEK-293 clonal cells; conditions: HEK293, read-out: Human GIP-R Emax
T2 sequence (P48546 22-466): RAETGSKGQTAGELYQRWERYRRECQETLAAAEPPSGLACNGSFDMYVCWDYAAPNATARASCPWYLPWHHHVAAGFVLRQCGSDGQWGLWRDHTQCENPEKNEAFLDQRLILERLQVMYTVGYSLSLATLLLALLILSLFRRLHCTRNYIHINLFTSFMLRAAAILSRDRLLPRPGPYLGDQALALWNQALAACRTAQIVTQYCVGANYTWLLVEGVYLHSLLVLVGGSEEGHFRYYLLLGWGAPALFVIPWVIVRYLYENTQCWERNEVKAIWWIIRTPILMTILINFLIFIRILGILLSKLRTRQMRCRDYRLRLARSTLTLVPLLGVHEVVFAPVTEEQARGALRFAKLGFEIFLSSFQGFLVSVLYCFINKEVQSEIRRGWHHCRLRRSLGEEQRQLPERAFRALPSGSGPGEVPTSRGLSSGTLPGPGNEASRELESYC

GIP receptor = biological target: T3, GIP receptor (Mus musculus, UniProt Q0P543); assay: Intracellular cAMP in GLUTag incretin-secreting cells; assay type: cell-based, murine; conditions: 0.001-3 μM
T3 construct: endogenous in cells; host or cells: GLUTag cells (murine enteroendocrine line)
T3 sequence (Q0P543 19-460): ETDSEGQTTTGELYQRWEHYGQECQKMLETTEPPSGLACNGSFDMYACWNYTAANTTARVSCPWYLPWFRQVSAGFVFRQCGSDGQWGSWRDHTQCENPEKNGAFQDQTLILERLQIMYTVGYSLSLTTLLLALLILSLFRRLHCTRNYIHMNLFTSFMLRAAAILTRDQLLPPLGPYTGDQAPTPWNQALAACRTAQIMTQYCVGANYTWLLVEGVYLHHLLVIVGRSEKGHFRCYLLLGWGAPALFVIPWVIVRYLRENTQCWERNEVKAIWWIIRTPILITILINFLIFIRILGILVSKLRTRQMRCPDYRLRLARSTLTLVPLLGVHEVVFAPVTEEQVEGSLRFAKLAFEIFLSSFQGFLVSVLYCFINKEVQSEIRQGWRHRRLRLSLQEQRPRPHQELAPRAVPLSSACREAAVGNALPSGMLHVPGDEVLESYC
Procedure: On the day of the assay, media is decanted from cells and 50 μl EBSS Buffer (0.1% BSA, 2 mM glucose and 0.25 mM IBMX) containing a range of compound concentrations (0.001-3 μM) is added to cells. The plate is incubated at 37° C. for one hour and cAMP levels determined using Cisbio Dynamic 2 cAMP HTRF kit (Bedford, Mass.). 25 μl of anti-cAMP cryptate and 25 μl cAMP d2 is added to each well and plates incubated for one hour at room temperature. […] Data is analyzed with GraphPad using a 4-parameter non-linear logistic algorithm

T1 sequence (P43220 24-463): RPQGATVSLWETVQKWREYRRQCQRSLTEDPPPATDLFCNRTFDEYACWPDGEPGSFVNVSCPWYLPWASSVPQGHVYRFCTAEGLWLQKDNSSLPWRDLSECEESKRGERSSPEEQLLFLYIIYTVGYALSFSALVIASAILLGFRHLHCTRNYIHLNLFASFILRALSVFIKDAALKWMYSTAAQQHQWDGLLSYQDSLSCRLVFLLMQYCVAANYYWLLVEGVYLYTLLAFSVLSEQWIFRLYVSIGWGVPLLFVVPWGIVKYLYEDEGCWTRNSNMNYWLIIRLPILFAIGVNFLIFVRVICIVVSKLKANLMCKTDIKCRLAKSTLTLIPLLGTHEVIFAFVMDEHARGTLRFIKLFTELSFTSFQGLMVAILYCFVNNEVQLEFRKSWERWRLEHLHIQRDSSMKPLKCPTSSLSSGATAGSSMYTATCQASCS
Sequence of Human GCGR (P47871 26-477): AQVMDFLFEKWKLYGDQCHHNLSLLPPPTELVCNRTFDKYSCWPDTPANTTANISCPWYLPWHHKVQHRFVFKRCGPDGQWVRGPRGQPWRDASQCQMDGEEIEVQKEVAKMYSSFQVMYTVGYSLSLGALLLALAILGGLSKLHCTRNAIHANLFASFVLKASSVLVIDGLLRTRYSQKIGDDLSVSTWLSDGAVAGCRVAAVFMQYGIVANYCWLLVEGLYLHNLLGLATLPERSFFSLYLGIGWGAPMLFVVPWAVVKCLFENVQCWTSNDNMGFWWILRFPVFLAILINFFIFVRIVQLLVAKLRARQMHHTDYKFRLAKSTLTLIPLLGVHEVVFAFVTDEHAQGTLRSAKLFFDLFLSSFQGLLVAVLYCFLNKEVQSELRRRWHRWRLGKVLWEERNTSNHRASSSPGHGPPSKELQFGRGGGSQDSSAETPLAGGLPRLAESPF

## CC[C@H](C)[C@H](NC(=O)[C@H](CC(C)C)NC(=O)[C@H](Cc1c[nH]c2ccccc12)NC(=O)[C@H](CCC(N)=O)NC(=O)[C@@H](NC(=O)[C@H](Cc1ccccc1)NC(=O)[C@H](C)NC(=O)[C@H](CCCCNC(=O)COCCOCCNC(=O)COCCOCCNC(=O)CC[C@H](NC(=O)CCCCCCCCCCCCCCCCC(=O)O)C(=O)O)NC(=O)[C@H](CCC(N)=O)NC(=O)[C@H](C)NC(=O)[C@@H](NC(=O)[C@H](CCCCN)NC(=O)[C@H](CC(=O)O)NC(=O)[C@H](CC(C)C)NC(=O)C(C)(C)NC(=O)[C@@H](NC(=O)[C@H](CO)NC(=O)[C@H](Cc1ccc(O)cc1)NC(=O)[C@H](CC(=O)O)NC(=O)[C@H](CO)NC(=O)[C@@H](NC(=O)[C@H](Cc1ccccc1)NC(=O)[C@@H](NC(=O)CNC(=O)[C@H](CCC(=O)O)NC(=O)C(C)(C)NC(=O)[C@@H](N)Cc1ccc(O)cc1)[C@@H](C)O)[C@@H](C)O)[C@@H](C)CC)[C@@H](C)CC)C(C)C)C(=O)N[C@@H](C)C(=O)NCC(=O)NCC(=O)N1CCC[C@H]1C(=O)N[C@@H](CO)C(=O)N[C@@H](CO)C(=O)NCC(=O)N[C@@H](C)C(=O)N1CCC[C@H]1C(=O)N1CCC[C@H]1C(=O)N1CCC[C@H]1C(=O)N[C@@H](CO)C(N)=O [Example 3]
Human GLP-1R [1]
  Emax: 96.2 ± 6.2%
[2]
  % max increase of insulin AUC: 314 +/− 38% and 219 +/− 19%
  ED50 for insulin, rat IVGTT: 1.00 nmol/kg and 1.42 nmol/kg
[3]
  CL/F: 1.3 mL/h/kg
  Cmax: 3000 ng/mL
[3]; read-out: Mean AUC0-inf
  AUC(0-inf): 153 µg·h/mL
[3]; read-out: Mean T1/2 (converted)
  half-life: 2040 min
[3]; read-out: Mean Tmax
  Tmax: 8 h
Human GLP-1R [4]; normalized by factor 4.53 from native GIP and GLP-1 binding
  Molar ratio of hGLP-1R/hGIP-R: 3.53
Human GLP-1R [4]; ratio of Ki values
  Absolute ratio of hGLP-1R/hGIP-R: 16
Mouse islets
  EC50: 58.9 nM
Rat islets
  EC50: 34.9 nM
[5]; Table 8, 10 nmol/kg
  % Change from starting body weight: −13.38 ± 0.88 %
  % Change from starting fat mass: −20.76 ± 2.42 %
[5]; Table 8, 30 nmol/kg
  % Change from starting body weight: −18.13 ± 1.44 %
  % Change from starting fat mass: −30.90 ± 2.06 %
[5]; Table 8, 100 nmol/kg
  % Change from starting body weight: −25.84 ± 1.93 %
  % Change from starting fat mass: −45.92 ± 2.15 %
[5]; Table 11, 10 nmol/kg
  Plasma Cholesterol: 213.2 ± 15.54 mg/dL
  Plasma Triglycerides: 30.38 ± 8.23 mg/dL
  Blood Glucose: 109.5 ± 2.35 mg/dL
[5]; Table 11, 30 nmol/kg
  Plasma Cholesterol: 177.4 ± 16.58 mg/dL
  Plasma Triglycerides: 21.32 ± 2.48 mg/dL
  Blood Glucose: 107.6 ± 1.32 mg/dL
[5]; Table 11, 100 nmol/kg
  Plasma Cholesterol: 194.00 ± 14.40 mg/dL
  Plasma Triglycerides: 20.55 ± 4.60 mg/dL
  Blood Glucose: 102.00 ± 0.50 mg/dL
Human GCGR
  EC50: > 1000 nM
Human GIP-R
  Emax: 106 ± 3%

## CC[C@H](C)[C@H](NC(=O)[C@H](Cc1ccccc1)NC(=O)[C@H](CCC(=O)O)NC(=O)[C@H](CCCCN)NC(=O)[C@H](C)NC(=O)[C@H](C)NC(=O)[C@H](CCC(N)=O)NC(=O)CNC(=O)[C@H](CCC(=O)O)NC(=O)[C@H](CC(C)C)NC(=O)[C@H](Cc1ccc(O)cc1)NC(=O)[C@H](CO)NC(=O)[C@H](CO)NC(=O)[C@@H](NC(=O)[C@H](CC(=O)O)NC(=O)[C@H](CO)NC(=O)[C@@H](NC(=O)[C@H](Cc1ccccc1)NC(=O)[C@@H](NC(=O)CNC(=O)[C@H](CCC(=O)O)NC(=O)[C@H](C)NC(=O)[C@@H](N)Cc1c[nH]cn1)[C@@H](C)O)[C@@H](C)O)C(C)C)C(=O)N[C@@H](C)C(=O)N[C@@H](Cc1c[nH]c2ccccc12)C(=O)N[C@@H](CC(C)C)C(=O)N[C@H](C(=O)N[C@@H](CCCCN)C(=O)NCC(=O)N[C@@H](CCCNC(=N)N)C(N)=O)C(C)C [GLP-1,7-36-NH2]
GIP receptor
  cAMP accumulation in GLUTag cells: fails to induce any changes in cAMP at all concentrations tested
